Test results published in US20260272907A1, “Therapeutic Tyrosine Kinase Inhibitors for Multiple Sclerosis” (Principia Biopharma Inc., priority 2022, published 2026).

System: patients with relapsing multiple sclerosis
Assay: Phase 2b dose-finding study: adverse events (TEAEs, SAEs, AESIs), safety population
Conditions: for Proportion of participants with TEAEs: BTK inhibitor treatment period (12 weeks); for Adverse event: Accidental overdose / Adverse event: Alanine aminotransferase increased / Adverse event: Alopecia / Adverse event: Back pain / Adverse event: Gastroenteritis / Adverse event: Headache / Adverse event: Muscle spasticity / Adverse event: Nasopharyngitis / Adverse event: Oropharyngeal pain / Adverse event: Peripheral edema / Adverse event: Respiratory tract infection / Adverse event: Upper respiratory tract infection: 12 weeks treatment
[1] = 15 mg, 12-week treatment period
[2] = 30 mg, 12-week treatment period
[3] = 60 mg, 12-week treatment period
[4] = All (N = 130), BTK inhibitor treatment period, safety population
[5] = All Dose Groups (N = 130), Weeks 1 to 12
[6] = BTK inhibitor 5 (N = 16), Weeks 1 to 4
[7] = BTK inhibitor 5 (N = 33), BTK inhibitor treatment period, safety population
[8] = BTK inhibitor 15 (N = 16), Weeks 1 to 4
[9] = BTK inhibitor 15 (N = 32), BTK inhibitor treatment period, safety population
[10] = BTK inhibitor 30 (N = 16), Weeks 1 to 4
[11] = BTK inhibitor 30 (N = 33), BTK inhibitor treatment period, safety population
[12] = BTK inhibitor 60 (N = 16), Weeks 1 to 4
[13] = BTK inhibitor 60 (N = 32), BTK inhibitor treatment period, safety population
[14] = BTKi 5 mg (N = 16), Weeks 1 to 4
[15] = BTKi 5 mg (n = 33), Weeks 1 to 12

C=CC(=O)N1CCC[C@@H](n2c(=O)n(-c3ccc(Oc4ccccc4)cc3)c3c(N)nccc32)C1 [the BTK inhibitor, (R)-1-(1-acryloylpiperidin-3-yl)-4-amino-3-(4-phenoxyphenyl)-1H-imidazo[4,5-c]pyridin-2(3H)-one]
4 (3%): Adverse event: Back pain (All Dose Groups (N = 130)) | Adverse event: Peripheral edema (All Dose Groups (N = 130))
5 (4%): Adverse event: Nasopharyngitis (All Dose Groups (N = 130))
9 (7%): Adverse event: Headache (All Dose Groups (N = 130))
one: Severe TEAEs (60 mg group, all other TEAEs mild or moderate)
well-tolerated: Tolerability (5-60 mg once daily, over the 12 weeks of treatment)
18 (54.5) n (%): Participants with any TEAE (BTK inhibitor treatment period, safety population)
18.8%: Proportion of participants who experienced TEAEs (15 mg, Weeks 1 to 4)
53.1%: Proportion of participants with TEAEs (15 mg)
2 (1.5) n (%): AESI: Alanice aminotransferase increased [4] | AESI: Investigations [4] | Any AESI [4]
no direct correlation: Correlation between dose administered and number of TEAEs (5-60 mg)
2: Oedema peripheral (TEAE) (5 mg, 12-week treatment period) | Upper respiratory tract infection (TEAE) (5 mg, 12-week treatment period) | Upper respiratory tract infection (TEAE) [1] | Back pain (TEAE) [2] | Gastroenteritis (TEAE) [3] | Muscle spasticity (TEAE) [3] | Oedema peripheral (TEAE) [3]
31.3%: Proportion of participants who experienced TEAEs (5 mg, Weeks 1 to 4) | Proportion of participants who experienced TEAEs (60 mg, Weeks 1 to 4)
3: Headache (TEAE) [1] | Accidental overdose (TEAE) [3] | Nasopharyngitis (TEAE) [3]
2 (6%): Adverse event: Peripheral edema (BTKi 5 mg (n = 33)) | Adverse event: Upper respiratory tract infection (BTKi 5 mg (n = 33))
3 cases: Headache (TEAE) (5 mg, Weeks 1 to 4)
0%: Adverse event: Accidental overdose (BTKi 5 mg (n = 33)) | Adverse event: Muscle spasticity (BTKi 5 mg (n = 33)) | Adverse event: Respiratory tract infection (BTKi 5 mg (n = 33))
1 (3%): Adverse event: Alanine aminotransferase increased (BTKi 5 mg (n = 33)) | Adverse event: Alopecia (BTKi 5 mg (n = 33)) | Adverse event: Back pain (BTKi 5 mg (n = 33)) | Adverse event: Gastroenteritis (BTKi 5 mg (n = 33)) | Adverse event: Headache (BTKi 5 mg (n = 33)) | Adverse event: Nasopharyngitis (BTKi 5 mg (n = 33)) | Adverse event: Oropharyngeal pain (BTKi 5 mg (n = 33))
1 (3.0) n (%): AESI: Alanice aminotransferase increased [11] | AESI: Investigations [11] | Any AESI [11]
One: Treatment-emergent SAEs (MS relapse) (60 mg, Cohort 1, about 8 weeks after starting treatment)
15 (11.5) n (%): Participants with any treatment-related TEAE [4]
70 (53.8) n (%): Any AE (4 weeks vs. placebo 12 weeks) [5]
1: Alanine aminotransferase increased (TEAE) (5 mg, 12-week treatment period) | Alopecia (TEAE) (5 mg, 12-week treatment period) | Back pain (TEAE) (5 mg, 12-week treatment period) | Gastroenteritis (TEAE) (5 mg, 12-week treatment period) | Headache (TEAE) (5 mg, 12-week treatment period) | Nasopharyngitis (TEAE) (5 mg, 12-week treatment period) | Oropharyngeal pain (TEAE) (5 mg, 12-week treatment period) | Alopecia (TEAE) [1] | Back pain (TEAE) [1] | Respiratory tract infection (TEAE) [1] | AESIs (alanine aminotransferase increased >3×ULN) (30 mg treatment period) | Alanine aminotransferase increased (TEAE) [2] | Headache (TEAE) [2] | Muscle spasticity (TEAE) [2] | Nasopharyngitis (TEAE) [2] | Oropharyngeal pain (TEAE) [2] | Respiratory tract infection (TEAE) [2] | Upper respiratory tract infection (TEAE) [2] | AESIs (alanine aminotransferase increased >3×ULN) (60 mg treatment period) | Alanine aminotransferase increased (TEAE) [3] | Alopecia (TEAE) [3] | Oropharyngeal pain (TEAE) [3] | Respiratory tract infection (TEAE) [3] | Upper respiratory tract infection (TEAE) [3]
54.5%: Proportion of participants with TEAEs (30 mg)
1 (0.8) n(%): Participants with treatment emergent SAE(s): Any class [4] | Participants with treatment emergent SAE(s): Multiple sclerosis relapse [4] | Participants with treatment emergent SAE(s): NERVOUS SYSTEM DISORDERS [4]
0 n (%): Participants with any TEAE leading to death [4] | Participants with any TEAE leading to study treatment discontinuation [4] | Participants with study discontinuation due to any TEAE [4] | Participants with any TEAE leading to death (All (N = 130), Weeks 1 to 4) | Participants with any TEAE leading to study treatment discontinuation (All (N = 130), Weeks 1 to 4) | Participants with any severe TEAE (All (N = 130), Weeks 1 to 4) | Participants with any treatment emergent SAE (All (N = 130), Weeks 1 to 4) | Participants with study discontinuation due to any TEAE (All (N = 130), Weeks 1 to 4) | AE leading to death [5] | AE leading to study discontinuation [5] | Any AE leading to study treatment discontinuation [5] | AESI: Alanice aminotransferase increased [6] | AESI: Investigations [6] | Any AESI [6] | AESI: Investigations [7] | Any AESI [7] | AESI: Alanice aminotransferase increased (BTK inhibitor 5, BTK inhibitor treatment period, safety population) | AESI: Alanice aminotransferase increased [8] | AESI: Investigations [8] | Any AESI [8] | AESI: Alanice aminotransferase increased [9] | AESI: Investigations [9] | Any AESI [9] | AESI: Alanice aminotransferase increased [10] | AESI: Investigations [10] | Any AESI [10] | AESI: Alanice aminotransferase increased [12] | AESI: Investigations [12] | Any AESI [12] | AE leading to death [15] | AE leading to study discontinuation [15] | Any AE leading to study treatment discontinuation [15]
50.0%: Proportion of participants with TEAEs (60 mg)
1 (3.1) n (%): AESI: Alanice aminotransferase increased [13] | AESI: Investigations [13] | Any AESI [13]
2 cases: Nausea (TEAE) (5 mg, Weeks 1 to 4) | Headache (TEAE) (15 mg, Weeks 1 to 4)
57.6%: Proportion of participants with TEAEs (5 mg)
6 (5%): Adverse event: Upper respiratory tract infection (All Dose Groups (N = 130))
69 (53.1) n (%): Participants with any TEAE [4]
3 (2%): Adverse event: Accidental overdose (All Dose Groups (N = 130)) | Adverse event: Alanine aminotransferase increased (All Dose Groups (N = 130)) | Adverse event: Alopecia (All Dose Groups (N = 130)) | Adverse event: Gastroenteritis (All Dose Groups (N = 130)) | Adverse event: Muscle spasticity (All Dose Groups (N = 130)) | Adverse event: Oropharyngeal pain (All Dose Groups (N = 130)) | Adverse event: Respiratory tract infection (All Dose Groups (N = 130))
0: AE leading to death [14] | AE leading to study discontinuation [14] | Any AE leading to study treatment discontinuation [14] | Serious AE [14]
19 (57.6) n (%): Any AE (4 weeks vs. placebo 12 weeks) [15]
1 (0.8) n (%): Participants with any severe TEAE [4] | Participants with any treatment emergent SAE [4] | Serious AE [5]
4: Headache (TEAE) [3]
12.5%: Proportion of participants who experienced TEAEs (30 mg, Weeks 1 to 4)
1 cases: Nausea (TEAE) (30 mg, Weeks 1 to 4) | Headache (TEAE) (60 mg, Weeks 1 to 4)
17 (13.1) n (%): Any treatment-related AE [5]
